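Results reflect a 48-hour exposure of cells in 96-well plates to compound at five concentrations. TGI: concentration producing complete growth inhibition.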
Key:
Experiment in all cases: DTP human tumour cell line panel, 48 h
OVCAR-8 ovarian = tested on: OVCAR-8 ovarian
MDA-N = tested on: MDA-N
SN12C renal = tested on: SN12C renal
DLD-1 colon = tested on: DLD-1 colon
CAKI-1 renal = tested on: CAKI-1 renal
MDA-MB-435 = tested on: MDA-MB-435
LXFL 529 NSCLC = tested on: LXFL 529 NSCLC
NCI-H226 lung = tested on: NCI-H226 lung
NCI-H23 lung = tested on: NCI-H23 lung
SNB-19 CNS = tested on: SNB-19 CNS
786-0 renal = tested on: 786-0 renal
MCF7 breast = tested on: MCF7 breast
MOLT-4 leukemia = tested on: MOLT-4 leukemia
LOX IMVI melanoma = tested on: LOX IMVI melanoma
OVCAR-3 ovarian = tested on: OVCAR-3 ovarian
SW-620 colon = tested on: SW-620 colon
U251 CNS = tested on: U251 CNS
BT-549 breast = tested on: BT-549 breast
RPMI-8226 leukemia = tested on: RPMI-8226 leukemia
SF-295 CNS = tested on: SF-295 CNS
NCI-H522 lung = tested on: NCI-H522 lung
HCT-116 colon = tested on: HCT-116 colon
HT29 colon = tested on: HT29 colon
EKVX NSCLC = tested on: EKVX NSCLC
NCI/ADR-RES ovarian = tested on: NCI/ADR-RES ovarian
DU-145 prostate = tested on: DU-145 prostate
ACHN renal = tested on: ACHN renal
HOP-62 NSCLC = tested on: HOP-62 NSCLC
DMS 273 small cell lung = tested on: DMS 273 small cell lung
M14 melanoma = tested on: M14 melanoma
T-47D breast = tested on: T-47D breast
DMS 114 small cell lung = tested on: DMS 114 small cell lung
SK-OV-3 ovarian = tested on: SK-OV-3 ovarian
UO-31 renal = tested on: UO-31 renal
SF-539 CNS = tested on: SF-539 CNS
NCI-H460 lung = tested on: NCI-H460 lung
HOP-92 NSCLC = tested on: HOP-92 NSCLC
TK-10 renal = tested on: TK-10 renal
HL-60(TB) leukemia = tested on: HL-60(TB) leukemia
SF-268 CNS = tested on: SF-268 CNS
XF 498 CNS = tested on: XF 498 CNS
KM20L2 colon = tested on: KM20L2 colon
OVCAR-4 ovarian = tested on: OVCAR-4 ovarian
A549 NSCLC = tested on: A549 NSCLC
UACC-257 melanoma = tested on: UACC-257 melanoma
SNB-75 CNS = tested on: SNB-75 CNS
HS 578T breast = tested on: HS 578T breast
RXF-631 renal = tested on: RXF-631 renal
M19-MEL melanoma = tested on: M19-MEL melanoma
SK-MEL-5 melanoma = tested on: SK-MEL-5 melanoma
HOP-18 NSCLC = tested on: HOP-18 NSCLC
COLO 205 colon = tested on: COLO 205 colon
CCRF-CEM leukemia = tested on: CCRF-CEM leukemia
A498 renal = tested on: A498 renal
HCT-15 colon = tested on: HCT-15 colon
SNB-78 CNS = tested on: SNB-78 CNS
MALME-3M melanoma = tested on: MALME-3M melanoma
HCC-2998 colon = tested on: HCC-2998 colon
SR leukemia = tested on: SR leukemia
OVCAR-5 ovarian = tested on: OVCAR-5 ovarian
K-562 leukemia = tested on: K-562 leukemia
IGROV1 ovarian = tested on: IGROV1 ovarian
SK-MEL-28 melanoma = tested on: SK-MEL-28 melanoma
KM12 colon = tested on: KM12 colon
MDA-MB-231 breast = tested on: MDA-MB-231 breast
UACC-62 melanoma = tested on: UACC-62 melanoma
SK-MEL-2 melanoma = tested on: SK-MEL-2 melanoma
RXF 393 renal = tested on: RXF 393 renal

S=c1nc(Oc2ccc(Cl)c(Cl)c2)[nH]c(=S)[nH]1
TGI (OVCAR-8 ovarian): 97.4 µM
TGI (MDA-N): > 100 µM
TGI (SN12C renal): > 95.6 µM
TGI (DLD-1 colon): 88.4 µM
TGI (CAKI-1 renal): > 100 µM
TGI (MDA-MB-435): > 100 µM
TGI (LXFL 529 NSCLC): > 100 µM
TGI (NCI-H226 lung): > 77.6 µM
TGI (NCI-H23 lung): > 63.3 µM
TGI (SNB-19 CNS): > 100 µM
TGI (786-0 renal): > 100 µM
TGI (MCF7 breast): > 100 µM
TGI (MOLT-4 leukemia): > 69.6 µM
TGI (LOX IMVI melanoma): 37.8 µM
TGI (OVCAR-3 ovarian): > 100 µM
TGI (SW-620 colon): > 100 µM
TGI (U251 CNS): 99.4 µM
TGI (BT-549 breast): > 100 µM
TGI (RPMI-8226 leukemia): 51.5 µM
TGI (SF-295 CNS): > 100 µM
TGI (NCI-H522 lung): 38.2 µM
TGI (HCT-116 colon): > 60.9 µM
TGI (HT29 colon): > 89.7 µM
TGI (EKVX NSCLC): > 93.9 µM
TGI (NCI/ADR-RES ovarian): > 100 µM
TGI (DU-145 prostate): > 100 µM
TGI (ACHN renal): > 82.2 µM
TGI (HOP-62 NSCLC): > 67.6 µM
TGI (DMS 273 small cell lung): 50 µM
TGI (M14 melanoma): > 100 µM
TGI (T-47D breast): 59.6 µM
TGI (DMS 114 small cell lung): 48.2 µM
TGI (SK-OV-3 ovarian): > 100 µM
TGI (UO-31 renal): 71.2 µM
TGI (SF-539 CNS): > 73.1 µM
TGI (NCI-H460 lung): 64.9 µM
TGI (HOP-92 NSCLC): 60.9 µM
TGI (TK-10 renal): > 100 µM
TGI (HL-60(TB) leukemia): > 100 µM
TGI (SF-268 CNS): > 81.8 µM
TGI (XF 498 CNS): 65.6 µM
TGI (KM20L2 colon): > 100 µM
TGI (OVCAR-4 ovarian): > 82.2 µM
TGI (A549 NSCLC): 61.4 µM
TGI (UACC-257 melanoma): > 80 µM
TGI (SNB-75 CNS): > 84.5 µM
TGI (HS 578T breast): > 100 µM
TGI (RXF-631 renal): 32.8 µM
TGI (M19-MEL melanoma): 56.5 µM
TGI (SK-MEL-5 melanoma): > 55.6 µM
TGI (HOP-18 NSCLC): > 100 µM
TGI (COLO 205 colon): > 60.4 µM
TGI (CCRF-CEM leukemia): > 87.5 µM
TGI (A498 renal): 77.6 µM
TGI (HCT-15 colon): > 100 µM
TGI (SNB-78 CNS): > 100 µM
TGI (MALME-3M melanoma): > 71.3 µM
TGI (HCC-2998 colon): 37.9 µM
TGI (SR leukemia): > 100 µM
TGI (OVCAR-5 ovarian): > 100 µM
TGI (K-562 leukemia): > 31.6 µM
TGI (IGROV1 ovarian): > 92.3 µM
TGI (SK-MEL-28 melanoma): > 92.5 µM
TGI (KM12 colon): 33.6 µM
TGI (MDA-MB-231 breast): > 100 µM
TGI (UACC-62 melanoma): > 60.3 µM

O=C(O)c1c2c(c(C(=O)O)c3ccccc13)-c1ccccc1-2
TGI (OVCAR-8 ovarian): > 100 µM
TGI (SK-MEL-2 melanoma): 97.1 µM
TGI (SN12C renal): > 100 µM
TGI (DLD-1 colon): > 100 µM
TGI (LXFL 529 NSCLC): > 100 µM
TGI (NCI-H226 lung): > 100 µM
TGI (NCI-H23 lung): > 100 µM
TGI (SNB-19 CNS): > 100 µM
TGI (786-0 renal): > 100 µM
TGI (MOLT-4 leukemia): > 100 µM
TGI (LOX IMVI melanoma): > 100 µM
TGI (OVCAR-3 ovarian): 84 µM
TGI (SW-620 colon): > 100 µM
TGI (U251 CNS): > 100 µM
TGI (RPMI-8226 leukemia): > 100 µM
TGI (SF-295 CNS): > 100 µM
TGI (NCI-H522 lung): > 100 µM
TGI (HCT-116 colon): > 100 µM
TGI (HT29 colon): > 100 µM
TGI (EKVX NSCLC): > 100 µM
TGI (ACHN renal): > 100 µM
TGI (HOP-62 NSCLC): > 100 µM
TGI (DMS 273 small cell lung): > 100 µM
TGI (M14 melanoma): > 100 µM
TGI (DMS 114 small cell lung): > 100 µM
TGI (SK-OV-3 ovarian): 94.8 µM
TGI (UO-31 renal): > 100 µM
TGI (SF-539 CNS): 85.5 µM
TGI (HOP-92 NSCLC): 71.9 µM
TGI (TK-10 renal): > 100 µM
TGI (HL-60(TB) leukemia): > 100 µM
TGI (SF-268 CNS): > 100 µM
TGI (XF 498 CNS): > 100 µM
TGI (KM20L2 colon): > 100 µM
TGI (A549 NSCLC): > 100 µM
TGI (RXF 393 renal): 66.9 µM
TGI (UACC-257 melanoma): > 100 µM
TGI (SNB-75 CNS): > 100 µM
TGI (M19-MEL melanoma): > 100 µM
TGI (HOP-18 NSCLC): 83.9 µM
TGI (COLO 205 colon): > 100 µM
TGI (CCRF-CEM leukemia): > 100 µM
TGI (A498 renal): > 100 µM
TGI (SNB-78 CNS): > 100 µM
TGI (MALME-3M melanoma): > 100 µM
TGI (HCC-2998 colon): > 100 µM
TGI (SR leukemia): > 100 µM
TGI (OVCAR-5 ovarian): > 100 µM
TGI (K-562 leukemia): > 100 µM
TGI (SK-MEL-28 melanoma): > 100 µM
TGI (KM12 colon): > 100 µM
TGI (UACC-62 melanoma): 65.9 µM

Source: PubChem BioAssay (NCI)
